Key:
Assay type in all cases: cell-based
Rad51 foci = assay: Nuclear Rad51 foci by confocal microscopy in SKOV3 cells; details: for Rad51 foci, single agent: 30 μM DB4 or 25 μM olaparib
Text: Cells were transfected with the ISceI-expressing plasmid and then treated various concentrations of DB4 for 48 hr. Cells were harvested, stained with 7-AAD, and analyzed by flow cytometry for GFP-positive cells indicative of HR repair activity. […] Cells were transfected with the ISceI-expressing plasmid and treated with various concentrations of DB4. Cells were harvested, stained with 7-AAD, and stained, and analyzed by flow cytometry for GFP-positive cells indicative of NHEJ activity. Data are means±SD (N=3). *, p<0.05; **, p<0.01, compared with the 0 μM control of ISceI-transected cells. FIG. 7C depicts representative results of confocal imaging of olaparib-induced nuclear Rad51 foci in SKOV3 cells treated DB4. Cells were treated with 30 μM DB4 for 1 hr and then treated with 25 μM olaparib or 6 hr. Cells were fixed, permeabilized, and stained with the anti-Rad51 antibody and the Alexa Fluor 488-conjugated secondary antibody. Nuclei were counterstained with DAPI. Immunofluorescence of Rad51 foci and nuclei were visualized by confocal microscopy. […] Cells were also scored for nuclei containing equal or more than 10 distinct Rad51 foci to determine the percentage of cells positive for Rad51 foci. Data are means±SD (N=10). p<0.001, compared between indicated treatment groups. […] Cells were pre-treated with 30 μM DB4 and then treated with 25 μM olaparib for 24 hr. Protein was assessed by western blot analysis for the levels of γH2AX, p-H1, cyclin A2, p-CDK1/2, and HSC70. Cropped gel images of protein bands are presented. Full-length gel images are shown in FIG. 15. p-H1, cyclin A2, p-CDK1/2, and HSC70 bands were from re-probing the same blot. The γH2AX band was from a duplicated blot. […] The band density of γH2AX indicative of DSBs was quantified by densitometry. […]
To interrogate whether DB4 inhibited PARP inhibitor-induced DSB repair, nuclear Rad51 foci were determined in SKOV3 cells. […]
SKOV3 cells were grown for 24 hr prior to drug treatment. […] Nuclei containing equal or more than 10 Rad51 foci were counted to determine % Rad51-positive cells.

PEO4 cells = assay: Caspase 3/7 assay, PEO4; details: 50 μM olaparib, 24 hr
Description: Cells were pre-treated with 30 μM DB4 for 1 hr and then treated with various concentrations of olaparib for 72 hr. Cell survival was determined by MTS cytotoxicity assay. Data are means±SD (N=3-4). […] EOB calculation was used to quantify the synergy of the combination of DB4 and various concentrations of olaparib in PEO1 or PEO4 cells as shown in FIG. 8A. EOB>0, synergism; EOB=0, additivity; EOB<0, antagonism. […] Cells were pre-treated with 30 μM DB4-F for 1 hr and then treated with various concentrations of olaparib for 72 hr. Cell survival was determined by MTS cytotoxicity assay. Data are means±SD (N=3-4). […] EOB calculation was used to quantify the synergy of the combination of DB4-F and various concentrations of olaparib in PEO1 or PEO4 cells as shown in FIG. 8B. […] Cell survival was determined by MTS cytotoxicity assay. […] Caspase 3/7 activity was expressed as RLU per μg/μl protein. […] Caspase 3/7 activity was expressed as RLU per μg/μl protein. […] Cells were treated and caspase 3/7 activity was measured as described in FIG. 8G and FIG. 8H.
Furthermore, the effects of DB4 on olaparib-induced apoptosis at 24 hr were evaluated. […]
The assay was performed as described previously (Lin Z P et al., 2018, PLOS One, 13:e0207399). […] Total protein concentration of cell lysates was determined as described above. Caspase 3/7 activity was expressed as luminescence units (RLU) per μg/μL protein for each sample.

T cells = assay: PBMC T cell co-culture with PEO4 cells activated by CD3-CD28 beads; details: PBMCs co-cultured with treated PEO4 cells
Text: FIG. 23 depicts representative effects of DB4 or triapine on peripheral blood mononuclear cells (PBMCs) containing T cells that were co-cultured with BRCA-mutated PEO1 and BRCA-wild type PEO4 cells and activated by CD3-CD28 beads. PEO1 cells suppressed CD8-positive activated T cells.
FIG. 24 depicts representative effects of DB4 or triapine on peripheral blood mononuclear cells (PBMCs) containing T cells that were co-cultured with BRCA-mutated PEO1 and BRCA-wild type PEO4 cells and activated by CD3-CD28 beads. PEO1 cells increased PD1 and LAG3-positive exhausted T cells.
Further experiments were conducted using PBMCs containing T cells that were co-cultured with PEO1 or PEO4 cells and activated by CD3-CD28 beads (FIG. 23). […] Both DB4 and triapine are RNR inhibitors. As such, although not bound by any particular theory, it was hypothesized that DB4 turned BRCA-wild type EOC into immunogenic “hot” tumors. DB4 promoted an increase in tumor neoantigens and the recruitment of tumor infiltrating lymphocytes (TILs) to tumor stroma, which enabled an effective antitumor response elicited by immune checkpoint inhibitors.

| SMILES | Rad51 foci, single agent (Rad51 foci) | caspase 3/7 activity, olaparib alone (PEO4 cells) | T cell activation and exhaustion in co-culture with drug-treated PEO4 cells (T cells) | olaparib-induced Rad51 foci (Rad51 foci; 30 μM DB4 1 hr then 25 μM olaparib) | effect on olaparib-induced caspase 3/7 activity (PEO4 cells; DB4 starting at 7.5 μM) |
| --- | --- | --- | --- | --- | --- |
| O=C(c1cc(Cc2n[nH]c(=O)c3ccccc23)ccc1F)N1CCN(C(=O)C2CC2)CC1 [olaparib, reference compound] | induced a pronounced increase in Rad51 foci | minor increase in caspase 3/7 activity |  |  |  |
| NC(=S)NN=Cc1ncccc1N [triapine, 3-aminopyridine-2-carboxaldehyde-thiosemicarbazone, reference compound] |  |  | suppressing T cell activation and enhancing T cell exhaustion |  |  |
| C=CCn1c(SCc2cccc(Cl)c2)nnc1C1CCN(Cc2nc3ccccc3s2)CC1 [DB4, 2-[(4-{4-allyl-5-[(3-chlorobenzyl)thio]-4H-1,2,4-triazol-3-yl}-1-piperidinyl)methyl]-1,3-benzothiazole] | had no effects on Rad51 foci |  | suppressing T cell activation and enhancing T cell exhaustion | significantly attenuated | markedly augmented |
